Data on two compounds can be found in PubChem BioAssay AID720665 (NMMLSC, 2013).

Inconclusive results are not listed. The source made the active and inactive calls.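 Rule for the calls: active = inhibition of the calcium rise above 50%; inconclusive = dimming of resting cell dye signal by over 25%; inactive = inhibition below 50%.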

As a reminder, the inhibition is how much of the control response was suppressed.

This test relates to TALL-104 thapsigargin calcium, Fura Red flow cytometry. In words: inhibitors of thapsigargin-evoked calcium rise, mechanism study for lytic granule exocytosis inhibitor project, Fura Red, TALL-104 cells, CherryPick01 (AID 720665). The conditions noted are these: active compounds read high; dose or concentration not given here.

Turning to `Fc1ccc(/C=C\c2nccc3c2[nH]c2ccccc23)cc1`, the inhibition is 37.7% (inactive).
As for `O=C(CN1C(=O)/C(=C\c2cccc(Br)c2)Oc2ccccc21)NCCCN1CCOCC1`, the inhibition is 1% (inactive).
